The target of one assay is T1, Human MARK4 (Homo sapiens, UniProt Q96L34).
T1 construct: made in house; host or cells: HEK293 cells
T1 sequence (Q96L34 1-752): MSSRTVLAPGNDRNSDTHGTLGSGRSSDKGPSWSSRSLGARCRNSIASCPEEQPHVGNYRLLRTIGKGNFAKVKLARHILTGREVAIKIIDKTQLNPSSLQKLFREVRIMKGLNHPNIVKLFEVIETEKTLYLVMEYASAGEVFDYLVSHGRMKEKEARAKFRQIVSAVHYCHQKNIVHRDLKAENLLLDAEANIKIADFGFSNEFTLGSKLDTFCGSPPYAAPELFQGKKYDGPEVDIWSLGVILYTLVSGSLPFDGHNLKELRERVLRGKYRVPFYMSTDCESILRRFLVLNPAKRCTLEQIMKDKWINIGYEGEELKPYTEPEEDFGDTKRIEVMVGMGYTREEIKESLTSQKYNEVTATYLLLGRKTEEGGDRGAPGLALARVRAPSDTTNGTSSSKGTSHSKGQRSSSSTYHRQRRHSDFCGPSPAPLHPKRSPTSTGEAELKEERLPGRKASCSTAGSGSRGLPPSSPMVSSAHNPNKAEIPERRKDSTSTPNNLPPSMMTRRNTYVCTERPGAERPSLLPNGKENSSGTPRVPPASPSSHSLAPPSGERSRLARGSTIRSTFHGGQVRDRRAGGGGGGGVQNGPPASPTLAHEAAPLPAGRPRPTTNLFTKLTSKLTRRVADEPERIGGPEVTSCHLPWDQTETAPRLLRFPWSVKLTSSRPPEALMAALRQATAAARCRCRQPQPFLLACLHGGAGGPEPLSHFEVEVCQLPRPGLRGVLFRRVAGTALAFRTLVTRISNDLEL
Put plainly: In vitro kinase assay of MARK4 phosphorylating tau (Western blot). Format: biochemical. The note with it: human MARK4 and tau affinity-purified from HEK293 cells, FIG. 7. The source says:
Both human MARK4 and tau proteins were expressed in HEK293 cells and affinity-purified by immunoprecipitation. After in vitro kinase reaction in the presence or absence of the peptides, the reaction mixtures were separated on SDS-PAGE to separate the proteins, and the levels of total tau and phospho-tau generated by MARK4 were detected by Western blot analysis. The TAT peptide was used as a negative control. Note the inhibition of MARK4-mediated tau phosphorylation by both TAT-MKI and MKI-TAT.
We next tested the ability of the TAT-MKI and MKI-TAT fusions to inhibit the activity of MARK4 kinase in phosphorylating the tau protein (FIG. 7). Human MARK4 and tau proteins were expressed in HEK293 cells and affinity-purified by immunoprecipitation. In vitro kinase reactions were performed in the presence or absence of the TAT-MKI and MKI-TAT fusion peptides and the levels of total tau and phospho-tau generated by MARK4 were detected by Western blot analysis. The TAT peptide was used as a negative control. Both the TAT-MKI and MKI-TAT fusion peptides inhibited MARK4-mediated tau phosphorylation in vitro.
A general note: A western blot detects proteins with antibodies after separation by electrophoresis.

The next assay relates to Aβ-induced spine loss. The note with it: Zempel et al. (2010); cited from earlier work.
The subject of assay [1] is AMP-activated kinase (AMPK). In words: AMPK kinase activity in neurons detected with phospho-acetyl-CoA carboxylase (Ser79) antibody. Format: cell-based, rat. To be noted: specificity control; pACC antibody, FIG. 3C.
Assay [2] has as its system rat hippocampal neurons. Format: cell-based. The note with it: FIG. 4D.
Assay [3] concerns PAR-1/MARK-mediated tau phosphorylation. In words: Tau phosphorylation in transfected rat hippocampal neurons (western blot / immunostaining with 12E8 and PHF-1 antibodies). Format: cell-based. As to the method:
(§1) Robust 12E8 staining (gray) is seen in EGFP-transfected control neurons. Total tau is stained with anti-HA (gray). […] EGFP-transfected neurons served as control. […] Data quantification is shown in (3E) (***P<0.001 in Student's t-test). Scale bar, 10 μm.
(§2) Rat E18 hippocampal neuron primary cultures were prepared as described (Yu et al. (2011) Hum. Mol. Genet. 20:3227-3240, herein incorporated by reference in its entirety). Cultured neurons, grown for 10-days in vitro in 12-well plates, were transfected with 2-3 μg of plasmid per well using a CalPhos Mammalian Transfection Kit (Clontech, San Jose, Calif., USA). Fluorescence immunocytochemistry was performed 3 days after transfection. Preparation and concentration of lentiviral particles were performed as described before (Yu et al., supra). Viral transfection of hippocampal neurons was carried out at 10 days after in vitro culture. The next day, the culture medium was replaced with 50% fresh medium and 50% conditioned medium.
EGFP-tagged PSD-95-WT in the FHUGW lentivirus vector was described before (Xu et al. (2008) Neuron 57:248-262). The S561A mutation was introduced by site-directed mutagenesis. Tau S2A mutations were introduced as described before (Nishimura et al. Cell, 116:671-682), and subcloned into FHUGW with a C-terminal HA tag. EGFP- and HA-tagged human MARK4 constructs were obtained from Dr. Gerard Drewes. MKI cDNA was obtained from Dr. C. […]
(§3) Chicken anti-EGFP (1:4000) and rabbit anti-HA (1:3000) antibodies were purchased from Abcam (Cambridge, Mass., USA); mouse anti-Myc (1:1500, 4A6) and mouse anti-PSD-95 (1:300) from Millipore (Billerica, Mass., USA); rabbit anti-GluR1 (1:200) from Calbiochem (San Diego, Calif., USA) and rabbit anti-Synapsin I (1:1000) from Sigma (St Louis, Mo., USA). […] Dendritic spine number and clusters of PSD-95, GluR1 or Synapsin I were manually counted as the number along a 10 μm length of dendrite and presented as mean±SEM. […] Between 15 and 30 dendritic processes were selected for quantification. Data were analyzed while blind to the conditions.

Assay [4] concerns rat hippocampal neurons. Put plainly: MARK4 overexpression-induced synaptic and spine toxicity in hippocampal neurons. Format: cell-based. On the procedure: as §1, §2
Chicken anti-EGFP (1:4000) and rabbit anti-HA (1:3000) antibodies were purchased from Abcam (Cambridge, Mass., USA); mouse anti-Myc (1:1500, 4A6) and mouse anti-PSD-95 (1:300) from Millipore (Billerica, Mass., USA); rabbit anti-GluR1 (1:200) from Calbiochem (San Diego, Calif., USA) and rabbit anti-Synapsin I (1:1000) from Sigma (St Louis, Mo., USA). Immunofluorescence analysis was done essentially as described before (Yu et al., supra). Confocal images were obtained using a Leica TCS SP5 confocal microscope or Zeiss inverted LSM510 confocal microscope (Carl Zeiss, Inc.) with 63× NA 1.4 objectives. Processed confocal images were used to make 2D projections. Dendritic spine number and clusters of PSD-95, GluR1 or Synapsin I were manually counted as the number along a 10 μm length of dendrite and presented as mean±SEM. Each experiment was done at least three times and six to nine neurons were randomly selected for analysis each time. Between 15 and 30 dendritic processes were selected for quantification. Data were analyzed while blind to the conditions.

Assay [5] relates to rat hippocampal neurons. In words: Aβ oligomer-induced synaptic and dendritic spine defects in hippocampal neurons (morphology). The note with it: 5 μM Aβ oligomer-treated neurons. Format: cell-based. As to the method: FIGS. 4A-4C show the effects of MKI-EGFP on Aβ-induced loss of PSD-95 (FIG. 4A) and GluR1 (FIG. 4B) clusters and spine numbers. Neurons transfected with MKI-EGFP or EGFP were treated with Aβ oligomer or mock-treated with solvent as control. The cytoplasmic GFP signals allowed detection of dendritic spines, and PSD-95 or GluR1 clusters were detected by immunostaining. Quantification of data is shown in (FIG. 4C) (***P<0.001 in Student's t-test). […] Summary graphs from four to six culture sets plotting normalized mEPSC frequency and mEPSC amplitude are shown beneath the traces. Scale bar, 5 μm.
as §2
Commercial Aβ-42 peptide was purchased from rPeptide (Bogart, Ga., USA). […]
as §3

The test system of the next assay is all MARKs. To be noted: Nesic et al. (2010); cited from earlier work.

Where a SMILES comes first, the peptide text is derived from it. Where no end group is shown, it is not given here.

Regarding `CC(=O)N[C@@H](Cc1ccc(O)cc1)C(=O)NCC(=O)N[C@@H](CCCNC(=N)N)C(=O)N[C@@H](CCCCN)C(=O)N[C@@H](CCCCN)C(=O)N[C@@H](CCCNC(=N)N)C(=O)N[C@@H](CCCNC(=N)N)C(=O)N[C@@H](CCC(N)=O)C(=O)N[C@@H](CCCNC(=N)N)C(=O)N[C@@H](CCCNC(=N)N)C(=O)N[C@@H](CCCNC(=N)N)C(=O)NCC(=O)NCC(=O)N[C@@H](Cc1ccccc1)C(=O)N1CCC[C@H]1C(=O)N[C@@H](CC(C)C)C(=O)N[C@@H](CCCCN)C(=O)N[C@@H](CCCNC(=N)N)C(=O)N[C@@H](Cc1c[nH]cn1)C(=O)N[C@@H](CC(=O)O)C(=O)NCC(=O)N[C@H](C(=O)N[C@@H](CC(=O)O)C(=O)N[C@@H](CC(=O)O)C(=O)N[C@@H](CC(C)C)C(=O)N[C@@H](CO)C(=O)N[C@@H](CCCCN)C(=O)N[C@H](C(=O)NCC(N)=O)C(C)C)C(C)C` [TAT-MKI] (Ac-YGRKKRRQRRRGGFPLKRHDGVDDLSKVG-NH2), the “MARK4-mediated tau phosphorylation in vitro” value on Human MARK4 is given as “inhibited”.

For `CC(=O)O[C@H]1C(=O)[C@@]2(C)[C@H]([C@H](OC(=O)c3ccccc3)[C@]3(O)C[C@H](OC(=O)[C@H](O)[C@@H](NC(=O)c4ccccc4)c4ccccc4)C(C)=C1C3(C)C)[C@]1(OC(C)=O)CO[C@@H]1C[C@@H]2O` [taxol], the Aβ-induced spine loss entry in the assay with Aβ-induced spine loss is “preventable”.

“MKI-EGFP: MKI cDNA subcloned into FHUGW lentivirus vector with a C-terminal EGFP tag, expressed in rat hippocampal neurons (FPLKRHDKVDDLSK; not fully specified (C-terminus))”: the “phosphorylation of acetyl-CoA carboxylase (ACC) by AMP-activated kinase (AMPK)” value in assay [1] was “did not affect”. The “reduction of mEPSC frequency caused by Aβ” value in the assay with rat hippocampal neurons [2] (Aβ-treated neurons, held at −70 mV) is given as “effectively rescued”. In the assay with rat hippocampal neurons [2] (no Aβ (mock-treated)), the “mEPSC amplitude in neurons expressing inhibitor alone” value is recorded as “not amplitude” and the “mEPSC frequency in neurons expressing inhibitor alone” value was “reduced mEPSC frequency”. In assay [3] (HA-tagged h-tau-WT in rat hippocampal neurons, immunostaining, FIG. 3B), the “MARK4-mediated phosphorylation of transfected human tau at the 12E8 sites” value is listed as “effectively attenuated”. The “MARK4-mediated phosphorylation of endogenous tau at the 12E8 sites” value in assay [3] (expressed in rat hippocampal neurons, western blot, FIG. 3A) was “effectively attenuated”. In the assay on rat hippocampal neurons [4] (FIG. 3E), the “MARK4 overexpression-induced reduction of GluR1 puncta density” value is recorded as “effectively blocked” and the “MARK4 overexpression-induced reduction of PSD-95 puncta density” value is reported as “effectively blocked”. Moreover, in the assay on rat hippocampal neurons [4] (co-expression in rat hippocampal neurons, FIGS. 3D and 3E), the “MARK4 overexpression-induced spine loss” value was “effectively blocked”. In addition, the “Aβ-caused reduction in the density of PSD-95 puncta” value with rat hippocampal neurons [5] (FIGS. 4A and 4C) was “effectively blocked”. For the same compound, the “Aβ-caused loss of dendritic spines” value in the assay on rat hippocampal neurons [5] (FIGS. 4A-4C) was “effectively blocked”. Besides, the “Aβ-caused reduction in the density of GluR1 puncta” value with rat hippocampal neurons [5] (FIGS. 4B and 4C) is recorded as “effectively blocked”.

Take “MKI: peptide inhibitor (SEQ ID NO:1) derived from the CagA protein of Helicobacter pylori, binds substrate-binding sites of all MARKs (FPLKRHDKVDDLSK)”: the “binding to the substrate-binding sites of all MARKs” value in the assay with all MARKs is recorded as “specifically bind with high affinity”. In assay [3] (rat hippocampal neurons, western blot, FIG. 3A), the “Phosphorylation of tau at the PHF-1 site” value was “reduced”.
